Results reported in paper PMC8343220, “The selectivity of α‐adrenoceptor agonists for the human α1A, α1B, and α1D‐adrenoceptors” (Pharmacology Research & Perspectives, 2021).
Where two headings read alike, the source gives them in different places. Each block holds one compound with its values, some of them ahead of it.

Legend:
human α1B‐adrenoceptor [1] = target: T1, human α1B‐adrenoceptor (Homo sapiens, UniProt P35368); assay: Intracellular free calcium mobilization, CHO‐α1B cells; format: cell-based; settings: CHO‐α1B cells, % of ionomycin response; for Intracellular calcium release % Ionomycin at 100 µM: response at 100 µM ligand (no EC50 given)
T1 construct: expressed in transfected cells; host or cells: CHO-K1
T1 sequence (P35368 1-520): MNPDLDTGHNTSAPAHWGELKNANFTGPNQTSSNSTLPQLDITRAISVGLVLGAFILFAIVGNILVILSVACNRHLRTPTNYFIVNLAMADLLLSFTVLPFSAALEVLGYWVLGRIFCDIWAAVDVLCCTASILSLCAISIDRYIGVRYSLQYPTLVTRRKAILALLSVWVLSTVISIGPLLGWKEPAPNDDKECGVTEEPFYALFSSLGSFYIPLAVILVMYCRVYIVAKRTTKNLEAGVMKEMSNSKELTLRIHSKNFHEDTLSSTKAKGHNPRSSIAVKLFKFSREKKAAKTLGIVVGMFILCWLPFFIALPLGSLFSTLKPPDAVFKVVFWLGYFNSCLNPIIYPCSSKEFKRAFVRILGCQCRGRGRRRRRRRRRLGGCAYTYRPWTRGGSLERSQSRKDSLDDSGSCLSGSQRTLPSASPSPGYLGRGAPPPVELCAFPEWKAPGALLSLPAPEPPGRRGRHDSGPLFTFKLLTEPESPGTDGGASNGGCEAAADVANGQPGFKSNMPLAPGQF

human α1A‐adrenoceptor [2] = target: T2, human α1A‐adrenoceptor (Homo sapiens, UniProt P35348); assay: Intracellular free calcium mobilization, CHO‐α1A cells; format: cell-based
T2 construct: expressed in transfected cells; host or cells: CHO-K1
T2 sequence (P35348 1-466): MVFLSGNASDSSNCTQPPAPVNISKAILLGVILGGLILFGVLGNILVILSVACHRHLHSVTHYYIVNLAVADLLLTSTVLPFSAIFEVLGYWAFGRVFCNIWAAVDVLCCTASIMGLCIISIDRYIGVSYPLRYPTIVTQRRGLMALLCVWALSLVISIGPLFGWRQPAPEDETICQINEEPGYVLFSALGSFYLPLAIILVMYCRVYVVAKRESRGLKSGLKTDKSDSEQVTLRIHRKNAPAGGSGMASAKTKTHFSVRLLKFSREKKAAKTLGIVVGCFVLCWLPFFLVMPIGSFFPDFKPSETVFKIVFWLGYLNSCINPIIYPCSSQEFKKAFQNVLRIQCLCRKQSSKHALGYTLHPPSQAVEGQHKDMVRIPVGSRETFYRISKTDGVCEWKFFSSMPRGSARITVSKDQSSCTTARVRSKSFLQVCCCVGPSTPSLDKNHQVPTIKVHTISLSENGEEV

[3] = test system: parental CHO cell line without any transfected receptors; assay: ERK1/2‐phosphorylation, parent CHO cells without transfected receptors; format: cell-based, Chinese hamster; settings: CHO cells without transfected receptors; for ERK1/2-phosphorylation % PDBu: maximal response as % of PDBu (10μM) response; for ERK1/2-phosphorylation % PDBu / ERK1/2-phosphorylation Log EC50: mean ± s.e.m.
[4] = target: T3, human α1D‐adrenoceptor (full length) (Homo sapiens, UniProt P25100); assay: ERK1/2‐phosphorylation (Surefire Alphascreen), CHO‐α1D cells; format: cell-based
T3 construct: human α1D‐adrenoceptor (full length) were used; expressed in transfected cells; host or cells: CHO-K1
T3 sequence (P25100 1-572): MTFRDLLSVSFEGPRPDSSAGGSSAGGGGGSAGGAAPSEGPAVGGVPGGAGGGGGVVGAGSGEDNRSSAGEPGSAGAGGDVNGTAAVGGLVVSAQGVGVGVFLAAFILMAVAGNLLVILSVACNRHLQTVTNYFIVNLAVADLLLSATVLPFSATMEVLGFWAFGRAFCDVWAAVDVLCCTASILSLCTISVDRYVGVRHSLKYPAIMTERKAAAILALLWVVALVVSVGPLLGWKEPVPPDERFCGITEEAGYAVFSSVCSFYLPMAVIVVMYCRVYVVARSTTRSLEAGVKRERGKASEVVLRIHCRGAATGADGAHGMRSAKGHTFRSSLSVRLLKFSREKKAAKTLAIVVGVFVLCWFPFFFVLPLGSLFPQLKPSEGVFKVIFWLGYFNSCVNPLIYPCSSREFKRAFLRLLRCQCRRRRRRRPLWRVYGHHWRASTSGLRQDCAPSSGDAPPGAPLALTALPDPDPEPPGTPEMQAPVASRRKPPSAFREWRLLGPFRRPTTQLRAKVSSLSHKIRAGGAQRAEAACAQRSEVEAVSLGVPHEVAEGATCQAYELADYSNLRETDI

human α1B‐adrenoceptor [5] = target: T1, human α1B‐adrenoceptor; assay: ^3H‐prazosin whole‐cell radioligand binding, CHO‐α1B cells; settings: CHO‐α1B cells
human α1A‐adrenoceptor [6] = target: T2, human α1A‐adrenoceptor; assay: ^3H‐prazosin whole‐cell radioligand binding, CHO‐α1A cells
[7] = target: T3, human α1D‐adrenoceptor (full length); assay: Intracellular free calcium mobilization, CHO‐α1D cells; format: cell-based; settings: for Intracellular calcium release % ionomycin: maximal response as % of 10 µM ionomycin
[8] = target: T3, human α1D‐adrenoceptor (full length); assay: ^3H‐prazosin whole‐cell radioligand binding, CHO‐α1D cells
human α1A‐adrenoceptor [9] = target: T2, human α1A‐adrenoceptor; assay: ERK1/2‐phosphorylation (Surefire Alphascreen), CHO‐α1A cells; format: cell-based
human α1B‐adrenoceptor [10] = target: T1, human α1B‐adrenoceptor; assay: ERK1/2‐phosphorylation (Surefire Alphascreen), CHO‐α1B cells; format: cell-based; settings: for ERK1/2‐phosphorylation % PDBu: maximal response as % PDBu response
[11] = test system: parental CHO cell line without any transfected receptors; assay: Forskolin‐stimulated cAMP accumulation, parent CHO cells without transfected receptors; format: cell-based, Chinese hamster
[12] = CHO‐α1A cells, response at 10 μM ligand, no EC50 obtained
[13] = CHO‐α1D cells, log values given negative
[14] = CHO‐α1D cells, maximal response as % of PDBu
[15] = higher affinity for α1A than α1B
[16] = CHO‐α1D cells, whole‐cell binding (from Table 1), log values given negative
[17] = CHO‐α1D cells, given as log KD (negative), mean ± SEM, 'early plateau' = specific binding not fully inhibited
[18] = higher affinity for α1D than α1B
[19] = CHO‐α1B cells, for bi‐phasic responses the initial stimulatory part

SMILES: C1=C(c2cnc[nH]2)c2ccsc2CC1 [RWJ52353]
Intracellular calcium release % ionomycin at 10 µM (human α1B‐adrenoceptor [1]; response at 10 µM ligand (no EC50 given)): 8.1 ± 3.1%
Intracellular calcium release % ionomycin at 10 µM (human α1A‐adrenoceptor [2]; [12]): 39.4 ± 2.4%
ERK1/2-phosphorylation % PDBu [3]: No response
ERK1/2-phosphorylation Log EC50 [3]: No response
ERK1/2‐phosphorylation Log EC50 [4, 13]: No response
ERK1/2‐phosphorylation % PDBu [4, 14]: No response
Log IC50 α1B, ^3H‐prazosin whole cell binding (human α1B‐adrenoceptor [5]; printed as IC50> log value): IC50 >−3
Log KD α1A, ^3H‐prazosin whole cell binding (human α1A‐adrenoceptor [6]; CHO‐α1A cells, given as log KD (negative), mean ± SEM): −5.28 ± 0.08
Affinity selectivity ratio α1A vs α1B (human α1A‐adrenoceptor [6]; [15]): >190 fold
Affinity selectivity ratio α1A vs α1D (human α1A‐adrenoceptor [6]; higher affinity for α1A than α1D): 9.6 fold
Intracellular calcium release Log EC50 [7, 13]: No response
Intracellular calcium release % ionomycin ([7]; CHO‐α1D cells): No response
3H‐prazosin binding Log KD [8, 16]: −4.30
Log KD α1D, ^3H‐prazosin whole cell binding [8, 17]: −4.30 ± 0.12
Affinity selectivity ratio α1B vs α1D [8, 18]: >20 fold

SMILES: C=CCN1CCc2nc(N)sc2CC1 [BHT920]
Intracellular calcium release % Ionomycin at 100 µM (human α1B‐adrenoceptor [1]): 16.3 ± 4.5%
Intracellular calcium release % ionomycin (human α1A‐adrenoceptor [2]): 39.7 ± 3.3%
Intracellular calcium release Log EC50 (human α1A‐adrenoceptor [2]): −5.68 ± 0.09
Log efficacy ratio KD /EC50 (human α1A‐adrenoceptor [2]): 0.98
ERK1/2-phosphorylation % PDBu at 100μM ([3]; response at 100μM only, EC50 not obtainable, % of PDBu (10μM)): 3.8 ± 1.8%
ERK1/2‐phosphorylation Log EC50 [4]: No response
ERK1/2‐phosphorylation % PDBu [4, 14]: No response
Log KD, ^3H‐prazosin binding (human α1B‐adrenoceptor [5]; whole‐cell binding (from Table 1), given as log KD (negative numbers)): −3.73
Log KD α1B, ^3H‐prazosin whole cell binding (human α1B‐adrenoceptor [5]; given as log KD (negative), mean ± SEM): −3.73 ± 0.04
Affinity selectivity ratio α1A vs α1B (human α1A‐adrenoceptor [6]): 9.3 fold
Affinity selectivity ratio α1A vs α1D (human α1A‐adrenoceptor [6]): 1.6 fold
Log KD α1A, ^3H‐prazosin whole cell binding (human α1A‐adrenoceptor [6]): −4.70 ± 0.04
ERK1/2‐phosphorylation % PDBu (human α1A‐adrenoceptor [9]): 61.4 ± 5.5%
ERK1/2‐phosphorylation Log EC50 (human α1A‐adrenoceptor [9]): −5.14 ± 0.05
ERK1/2‐phosphorylation Log EC50 (human α1B‐adrenoceptor [10]): −5.31 ± 0.04
ERK1/2‐phosphorylation % PDBu (human α1B‐adrenoceptor [10]; [19]): 12.2 ± 3.6%
Intracellular calcium release Log EC50 [7, 13]: No response
Intracellular calcium release % ionomycin ([7]; CHO‐α1D cells): No response
Affinity selectivity ratio α1B vs α1D [8]: 5.8 fold
3H‐prazosin binding Log KD [8, 16]: −4.49
Log KD α1D, ^3H‐prazosin whole cell binding [8, 17]: −4.49 ± 0.07

SMILES: CNC[C@H](O)c1cccc(O)c1 [R-phenylephrine]
ERK1/2-phosphorylation % PDBu [3]: No response
cAMP accumulation (in presence of forskolin) Log EC50 ([11]; CHO cells without transfected receptors, in presence of forskolin): No response

Intracellular calcium release % Ionomycin at 100 µM (human α1B‐adrenoceptor [1]): 20.0 ± 3.9%
Log efficacy ratio KD /EC50 (human α1A‐adrenoceptor [2]; CHO‐α1A cells, binding KD and calcium EC50): 1.19
EC50 (human α1A‐adrenoceptor [2]; CHO‐α1A cells, given as log EC50 (negative), read-out: Intracellular calcium release Log EC50 (converted)): 2.09 µM
Intracellular calcium release % ionomycin (human α1A‐adrenoceptor [2]; CHO‐α1A cells, maximal response as % of 10 µM ionomycin): 45.9 ± 3.8%
ERK1/2‐phosphorylation % PDBu [4]: No response
ERK1/2‐phosphorylation Log EC50 [4, 13]: No response
IC50 (human α1B‐adrenoceptor [5]; printed as IC50> log value): > 100 µM
Kd (human α1A‐adrenoceptor [6]; Log KD α1A, ^3H‐prazosin whole cell binding, CHO‐α1A cells, given as log KD (negative), mean ± SEM): 32.4 µM
Affinity selectivity ratio α1A vs α1B (human α1A‐adrenoceptor [6]; [15]): >3.1 fold
ERK1/2‐phosphorylation % PDBu at 10 µM (human α1A‐adrenoceptor [9]; [12]): 89.0 ± 3.9%
ERK1/2‐phosphorylation Log EC50 (human α1B‐adrenoceptor [10]; [19]): No response
ERK1/2‐phosphorylation % PDBu (human α1B‐adrenoceptor [10]; [19]): No response
Intracellular calcium release % Ionomycin at 100 µM [7]: 12.0 ± 0.9%
Kd ([8]; 3H‐prazosin binding Log KD, CHO‐α1D cells, whole‐cell binding (from Table 1), log values given negative): 18.6 µM
Kd [8, 17]: 18.6 µM
Affinity selectivity ratio α1A vs α1D ([8]; higher affinity for α1D than α1A): 1.7 fold
Affinity selectivity ratio α1B vs α1D [8, 18]: >5.4 fold
SMILES: C1COC(NC(C2CC2)C2CC2)=N1 [Rilmenidine]
ERK1/2-phosphorylation % PDBu [3]: No response
ERK1/2-phosphorylation Log EC50 [3]: No response

SMILES: COc1ccc(CC(C)NCC(O)c2ccc(O)c(NC=O)c2)cc1 (stereo not shown) [Formoterol]
Intracellular calcium release Log EC50 [7]: No response
Kd ([8]; 3H‐prazosin binding Log KD): 7.08 µM
Kd ([8]; Log KD α1D, ^3H‐prazosin whole cell binding): 7.08 µM
cAMP accumulation (in presence of forskolin) Log EC50 [11]: No response
